Values quoted from earlier work, collected in US20200392071A1, “Gene cluster for the biosynthetic production of tetracycline compounds in a heterologous host” (HELMHOLTZ-ZENTRUM FÜR INFEKTIONSFORSCHUNG GMBH, priority 2017, published 2020).

Key:
Gram-negative pathogens = conditions: patients with urinary tract infections caused by Gram-negative pathogens; Molnar et al. 1977
[1] = system: tetracycline-resistant pathogens; conditions: Proctor et al. 1978

In the case of `CC(=O)C1=C(O)C(N)C2Cc3c(c(O)c4c(O)c(C)ccc4c3C)C(=O)C2(O)C1=O` (centres unmarked) [chelocardin, Chelocardin], the “outcome in a small phase II clinical study” value (Gram-negative pathogens) is listed as “promising” and the “activity against tetracycline-resistant pathogens” value [1] is listed as “active”.
